{
  "source": "paper PMC3907537",
  "about": "“Evaluation of the Endothelin Receptor Antagonists Ambrisentan, Bosentan, Macitentan, and Sitaxsentan as Hepatobiliary Transporter Inhibitors and Substrates in Sandwich-Cultured Human Hepatocytes” (PLoS ONE, 2014)",
  "origin": "cited, not measured here",
  "key": {"BSEP": {"target": "T1, BSEP (Homo sapiens, UniProt O95342)", "T1 construct": "purchased Solvo Biotechnology, Budaors, Hungary; host or cells: Sf9 insect cells (membrane vesicles)", "T1 sequence (O95342 whole entry)": "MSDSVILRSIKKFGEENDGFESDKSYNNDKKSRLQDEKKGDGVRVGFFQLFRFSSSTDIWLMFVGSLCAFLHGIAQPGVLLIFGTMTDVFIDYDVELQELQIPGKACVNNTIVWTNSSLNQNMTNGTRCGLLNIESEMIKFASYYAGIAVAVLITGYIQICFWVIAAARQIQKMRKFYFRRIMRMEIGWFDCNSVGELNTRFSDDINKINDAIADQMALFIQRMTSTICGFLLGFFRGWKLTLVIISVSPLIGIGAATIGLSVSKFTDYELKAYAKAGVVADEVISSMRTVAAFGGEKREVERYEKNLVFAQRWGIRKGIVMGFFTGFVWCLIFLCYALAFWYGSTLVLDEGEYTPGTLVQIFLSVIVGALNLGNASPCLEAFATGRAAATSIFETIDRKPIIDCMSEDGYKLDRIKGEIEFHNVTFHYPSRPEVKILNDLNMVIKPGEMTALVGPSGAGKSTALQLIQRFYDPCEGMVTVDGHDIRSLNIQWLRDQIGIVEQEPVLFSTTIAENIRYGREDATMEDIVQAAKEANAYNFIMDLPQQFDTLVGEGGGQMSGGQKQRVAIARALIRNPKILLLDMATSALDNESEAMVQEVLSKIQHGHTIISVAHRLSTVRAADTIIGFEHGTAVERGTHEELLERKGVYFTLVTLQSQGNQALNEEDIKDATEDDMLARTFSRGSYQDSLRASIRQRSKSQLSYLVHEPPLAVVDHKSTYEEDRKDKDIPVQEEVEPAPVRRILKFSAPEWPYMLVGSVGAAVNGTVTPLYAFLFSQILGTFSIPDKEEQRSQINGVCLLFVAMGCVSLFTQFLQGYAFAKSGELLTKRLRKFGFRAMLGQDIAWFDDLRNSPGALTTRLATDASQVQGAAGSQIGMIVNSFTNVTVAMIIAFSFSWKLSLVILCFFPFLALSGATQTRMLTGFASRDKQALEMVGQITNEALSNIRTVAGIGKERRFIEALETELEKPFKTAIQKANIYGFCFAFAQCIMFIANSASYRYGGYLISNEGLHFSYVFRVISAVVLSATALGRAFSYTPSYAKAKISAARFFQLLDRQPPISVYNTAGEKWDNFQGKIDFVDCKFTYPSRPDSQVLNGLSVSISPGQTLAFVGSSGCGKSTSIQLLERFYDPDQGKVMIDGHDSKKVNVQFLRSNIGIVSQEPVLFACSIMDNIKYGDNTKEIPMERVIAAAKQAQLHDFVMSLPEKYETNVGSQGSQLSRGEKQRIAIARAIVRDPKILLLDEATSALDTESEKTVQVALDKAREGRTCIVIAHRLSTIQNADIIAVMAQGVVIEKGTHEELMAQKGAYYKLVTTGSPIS", "design": "method as in earlier work", "settings": "data previously reported, same assay conditions ref 35; cited from earlier work"}, "MRP2": {"target": "T2, MRP2 (Homo sapiens, UniProt Q92887)", "T2 construct": "purchased Solvo Biotechnology, Budaors, Hungary; host or cells: Sf9 insect cells (membrane vesicles)", "T2 sequence (Q92887 whole entry)": "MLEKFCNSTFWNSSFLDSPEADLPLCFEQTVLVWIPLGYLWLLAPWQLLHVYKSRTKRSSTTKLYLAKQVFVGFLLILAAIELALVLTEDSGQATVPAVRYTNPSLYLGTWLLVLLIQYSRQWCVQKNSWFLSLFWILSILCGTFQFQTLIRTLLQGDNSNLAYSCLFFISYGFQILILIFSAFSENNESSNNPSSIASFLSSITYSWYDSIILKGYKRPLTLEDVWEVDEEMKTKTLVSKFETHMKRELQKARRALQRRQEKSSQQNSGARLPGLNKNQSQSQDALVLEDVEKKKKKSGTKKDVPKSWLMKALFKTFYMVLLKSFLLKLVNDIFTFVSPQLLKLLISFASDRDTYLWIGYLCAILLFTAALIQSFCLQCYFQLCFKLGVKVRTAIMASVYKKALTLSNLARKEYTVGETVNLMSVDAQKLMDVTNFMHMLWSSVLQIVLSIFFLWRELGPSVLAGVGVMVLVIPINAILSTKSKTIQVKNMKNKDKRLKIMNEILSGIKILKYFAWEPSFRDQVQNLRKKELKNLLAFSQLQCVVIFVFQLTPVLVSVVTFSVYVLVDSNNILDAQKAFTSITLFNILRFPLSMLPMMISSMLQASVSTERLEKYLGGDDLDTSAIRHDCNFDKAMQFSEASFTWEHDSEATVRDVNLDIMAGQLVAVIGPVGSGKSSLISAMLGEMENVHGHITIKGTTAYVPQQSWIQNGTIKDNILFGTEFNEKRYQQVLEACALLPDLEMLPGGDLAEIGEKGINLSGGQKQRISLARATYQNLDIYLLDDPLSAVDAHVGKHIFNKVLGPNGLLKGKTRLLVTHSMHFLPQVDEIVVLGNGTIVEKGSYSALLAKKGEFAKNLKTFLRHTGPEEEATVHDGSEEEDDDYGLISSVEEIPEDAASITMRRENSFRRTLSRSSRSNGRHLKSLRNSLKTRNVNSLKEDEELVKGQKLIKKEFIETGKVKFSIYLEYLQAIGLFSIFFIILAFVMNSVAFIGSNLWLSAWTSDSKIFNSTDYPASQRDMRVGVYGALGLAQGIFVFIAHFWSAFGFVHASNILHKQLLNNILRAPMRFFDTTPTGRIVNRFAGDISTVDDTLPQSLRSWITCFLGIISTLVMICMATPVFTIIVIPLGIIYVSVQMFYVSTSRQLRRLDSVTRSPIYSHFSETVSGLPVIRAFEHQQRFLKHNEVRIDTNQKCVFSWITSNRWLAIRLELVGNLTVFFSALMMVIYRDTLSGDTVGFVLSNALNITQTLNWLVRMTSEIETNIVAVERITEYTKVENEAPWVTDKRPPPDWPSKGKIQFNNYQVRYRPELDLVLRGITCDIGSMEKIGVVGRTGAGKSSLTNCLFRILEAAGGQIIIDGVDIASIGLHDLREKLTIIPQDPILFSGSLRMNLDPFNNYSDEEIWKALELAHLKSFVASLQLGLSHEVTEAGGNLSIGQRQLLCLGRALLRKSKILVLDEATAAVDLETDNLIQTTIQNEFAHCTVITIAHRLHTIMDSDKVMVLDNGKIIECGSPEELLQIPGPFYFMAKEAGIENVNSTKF", "design": "method as in earlier work", "settings": "data previously reported ref 35; cited from earlier work"}, "BCRP": {"target": "T3, BCRP (Homo sapiens, UniProt Q9UNQ0)", "T3 construct": "host or cells: MDCKII", "T3 sequence (Q9UNQ0 1-655)": "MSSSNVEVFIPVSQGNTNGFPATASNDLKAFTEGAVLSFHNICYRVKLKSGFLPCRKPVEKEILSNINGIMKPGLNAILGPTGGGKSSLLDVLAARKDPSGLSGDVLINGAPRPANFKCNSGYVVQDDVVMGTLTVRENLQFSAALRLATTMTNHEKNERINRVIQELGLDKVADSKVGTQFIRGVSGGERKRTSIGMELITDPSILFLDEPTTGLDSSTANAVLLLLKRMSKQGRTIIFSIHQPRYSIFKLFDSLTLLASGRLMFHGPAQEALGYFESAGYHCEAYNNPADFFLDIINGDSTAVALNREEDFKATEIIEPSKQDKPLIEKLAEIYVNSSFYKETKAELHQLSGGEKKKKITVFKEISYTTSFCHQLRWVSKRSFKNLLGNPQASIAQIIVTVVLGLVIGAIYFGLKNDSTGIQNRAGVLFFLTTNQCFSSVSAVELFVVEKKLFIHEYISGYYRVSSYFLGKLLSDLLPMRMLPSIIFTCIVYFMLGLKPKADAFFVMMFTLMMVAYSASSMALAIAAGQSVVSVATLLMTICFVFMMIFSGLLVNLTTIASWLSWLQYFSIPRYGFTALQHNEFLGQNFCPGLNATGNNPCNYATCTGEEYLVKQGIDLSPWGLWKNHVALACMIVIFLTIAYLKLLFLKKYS", "design": "method as in earlier work", "settings": "data previously reported, similar conditions ref 35; cited from earlier work"}, "[1]": {"settings": "cited from earlier work"}, "human OATP1B1": {"test_system": "human OATP1B1", "settings": "cited from earlier work"}, "OATP1B3": {"target": "T4, OATP1B3 (Homo sapiens, UniProt Q9NPD5)", "T4 construct": "host or cells: CHO", "T4 sequence (Q9NPD5 1-702)": "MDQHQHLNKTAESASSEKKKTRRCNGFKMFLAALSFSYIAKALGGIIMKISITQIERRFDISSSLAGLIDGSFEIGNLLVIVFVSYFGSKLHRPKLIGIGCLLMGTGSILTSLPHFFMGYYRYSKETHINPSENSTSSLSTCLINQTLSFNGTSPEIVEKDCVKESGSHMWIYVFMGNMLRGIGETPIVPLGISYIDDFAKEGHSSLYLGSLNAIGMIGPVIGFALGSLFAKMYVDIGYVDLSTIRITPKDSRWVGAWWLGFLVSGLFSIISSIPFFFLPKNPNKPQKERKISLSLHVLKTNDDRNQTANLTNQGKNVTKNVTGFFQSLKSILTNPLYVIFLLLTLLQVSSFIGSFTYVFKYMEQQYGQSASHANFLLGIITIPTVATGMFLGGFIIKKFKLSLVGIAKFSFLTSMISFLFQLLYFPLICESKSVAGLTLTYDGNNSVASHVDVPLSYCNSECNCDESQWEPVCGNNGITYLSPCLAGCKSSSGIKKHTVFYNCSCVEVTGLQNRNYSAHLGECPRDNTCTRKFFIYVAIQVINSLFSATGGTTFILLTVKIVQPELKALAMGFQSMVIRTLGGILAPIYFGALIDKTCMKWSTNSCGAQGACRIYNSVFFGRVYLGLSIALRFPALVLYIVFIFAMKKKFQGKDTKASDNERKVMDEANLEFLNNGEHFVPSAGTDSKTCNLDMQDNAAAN", "settings": "cited from earlier work"}, "human Pgp": {"test_system": "human Pgp", "design": "method as in PMID 22348175", "settings": "at doses up to 50 µM, Kim et al. ref 46; cited from earlier work"}, "canine BCRP": {"test_system": "canine BCRP", "design": "method as in PMID 23353592", "settings": "cited from earlier work"}, "[2]": {"settings": "cited from earlier work", "remark": "listed apart in the source"}},
  "note": "Several values for one entry are separate records, joined by “and”; a condition that tells them apart may be missing. Identical values can stand only once. Like-named read-outs stand apart in the source and are kept apart here.",
  "data": [
    {"smiles": "Cc1cc2c(cc1CC(=O)c1sccc1S(=O)(=O)Nc1onc(C)c1Cl)OCO2", "note": "[sitaxsentan]", "values": [
      {"measurement": "IC50", "setting": "BSEP", "result": 25, "unit": "µM"},
      {"measurement": "IC50", "setting": "MRP2", "result": "> 100", "unit": "µM"},
      {"measurement": "IC50", "setting": "BCRP", "result": "> 100", "unit": "µM"}
    ]},
    {"smiles": "CCCNS(=O)(=O)Nc1ncnc(OCCOc2ncc(Br)cn2)c1-c1ccc(Br)cc1", "note": "[macitentan]", "values": [
      {"measurement": "elevations >8X ULN on macitentan compared to placebo", "setting": "[1]; SERAPHIN ref 19", "result": "~5", "unit": "fold"},
      {"measurement": "incidence of serum aminotransferase elevations >3X ULN", "setting": "[1]; SERAPHIN, PAH patients, up to 103.9 weeks, placebo 4.5% ref 17, 19", "result": 3.4, "unit": "%"},
      {"measurement": "incidence of aminotransferase elevations >8X ULN", "setting": "[1]; SERAPHIN, placebo 0.4% ref 19", "result": 2.1, "unit": "%"},
      {"measurement": "IC50", "setting": "human OATP1B1; Bruderer et al. ref 36, read-out: OATP1B1 IC50", "result": 6.3, "unit": "µM"},
      {"measurement": "IC50", "setting": "human OATP1B1; read-out: human OATP1B1 IC50", "result": 4.4, "unit": "µM"},
      {"measurement": "IC50", "setting": "OATP1B3; Bruderer et al. ref 36", "result": 11.8, "unit": "µM"},
      {"measurement": "IC50", "setting": "OATP1B3", "result": 10, "unit": "µM"},
      {"measurement": "inhibition of human Pgp", "setting": "human Pgp", "result": "no inhibition"},
      {"measurement": "IC50", "setting": "canine BCRP", "result": "13.2 µM and 13 µM"}
    ]},
    {"smiles": "COC(c1ccccc1)(c1ccccc1)[C@H](Oc1nc(C)cc(C)n1)C(=O)O", "note": "[ambrisentan]", "values": [
      {"measurement": "patients with serum aminotransferase concentrations >3 times ULN", "setting": "[2]; ARIES studies, n = 261 ref 11", "result": "none"},
      {"measurement": "incidence of elevated aminotransferase >3 times ULN", "setting": "[2]; ARIES-E long-term extension, mean follow-up of 1.4 years ref 12", "result": 1.8, "unit": "%"}
    ]}
  ]
}
